In US6608086B2, “Dihydropyridines and new uses thereof” (Synaptic Pharmaceutical Corporation, priority 1993, dated 2003):
Read-outs that look alike come from different tables or passages of the source.

Experiments:
[1] = molecular target: T1, α1A Human Adrenergic Receptor (Homo sapiens, UniProt P25100); assay: Radioligand binding, [3H]prazosin, cloned human α1A adrenergic receptor
T1 construct: The entire coding region of α1A (1719 bp); expressed in transfected cells
T1 sequence (P25100 1-572): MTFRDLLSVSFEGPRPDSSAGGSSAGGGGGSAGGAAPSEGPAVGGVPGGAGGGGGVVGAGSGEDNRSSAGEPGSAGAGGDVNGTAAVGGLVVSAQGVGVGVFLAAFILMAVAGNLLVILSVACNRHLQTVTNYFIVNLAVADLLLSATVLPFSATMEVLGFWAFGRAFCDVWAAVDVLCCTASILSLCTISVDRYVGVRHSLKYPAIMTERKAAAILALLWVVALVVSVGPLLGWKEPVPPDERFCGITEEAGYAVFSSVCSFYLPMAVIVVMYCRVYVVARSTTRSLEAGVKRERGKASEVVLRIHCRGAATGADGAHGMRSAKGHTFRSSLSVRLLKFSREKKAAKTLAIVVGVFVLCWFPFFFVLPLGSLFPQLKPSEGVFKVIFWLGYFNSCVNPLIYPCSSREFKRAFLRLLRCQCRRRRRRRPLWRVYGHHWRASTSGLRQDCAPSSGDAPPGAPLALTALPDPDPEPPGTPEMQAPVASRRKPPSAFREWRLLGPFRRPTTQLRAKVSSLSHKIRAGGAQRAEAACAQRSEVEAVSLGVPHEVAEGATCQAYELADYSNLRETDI
Procedure, shortened: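 Binding of [3H]prazosin (0.5 nM) was measured at 37° C over 20 min in pH 7.5 Tris/MgCl2/ascorbate buffer, using membrane preparations of LM(tk−) cells expressing cloned human α1A receptor. Filtration through GF/B filters stopped the reaction. 10 μM phentolamine gave nonspecific binding.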

[2] = molecular target: T2, α1C Human Adrenergic Receptor (Homo sapiens, UniProt P35348); assay: Radioligand binding, [3H]prazosin, cloned human α1C adrenergic receptor; settings: cloned human receptor, LM(tk-) cell membranes, mean
T2 construct: The entire coding region of α1C (1401 bp); expressed in transfected cells
T2 sequence (P35348 1-466): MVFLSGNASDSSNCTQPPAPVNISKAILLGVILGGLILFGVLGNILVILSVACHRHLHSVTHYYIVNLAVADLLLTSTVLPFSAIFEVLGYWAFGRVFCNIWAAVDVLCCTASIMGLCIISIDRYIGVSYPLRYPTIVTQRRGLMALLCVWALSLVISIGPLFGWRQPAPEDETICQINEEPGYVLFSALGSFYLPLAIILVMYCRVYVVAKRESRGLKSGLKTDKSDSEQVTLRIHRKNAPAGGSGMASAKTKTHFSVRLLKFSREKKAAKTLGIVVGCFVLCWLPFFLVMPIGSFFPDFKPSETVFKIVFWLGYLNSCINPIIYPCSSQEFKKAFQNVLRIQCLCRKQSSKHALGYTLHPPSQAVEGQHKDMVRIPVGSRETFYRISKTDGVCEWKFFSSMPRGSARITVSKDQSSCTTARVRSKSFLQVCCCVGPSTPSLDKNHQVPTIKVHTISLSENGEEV
Procedure, shortened: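 Membranes from LM(tk−) cells stably expressing the cloned human α1C receptor were incubated with 0.5 nM [3H]prazosin at 37° C. for 20 min in 50 mM Tris-HCl, 1 mM MgCl2, 0.1% ascorbic acid, pH 7.5. Nonspecific binding was defined with 10 μM phentolamine, and bound ligand was separated by GF/B filtration.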

L-type calcium channel = molecular target: T3, L-type calcium channel (Rattus norvegicus, UniProt P22002); assay: Competition binding of [3H]nitrendipine to membrane fragments of rat cardiac muscle
T3 construct: membrane fragments of rat cardiac muscle; from tissue; host or cells: rat cardiac muscle membranes
T3 sequence (P22002 whole entry, other chains not shown, the tested form may be a part): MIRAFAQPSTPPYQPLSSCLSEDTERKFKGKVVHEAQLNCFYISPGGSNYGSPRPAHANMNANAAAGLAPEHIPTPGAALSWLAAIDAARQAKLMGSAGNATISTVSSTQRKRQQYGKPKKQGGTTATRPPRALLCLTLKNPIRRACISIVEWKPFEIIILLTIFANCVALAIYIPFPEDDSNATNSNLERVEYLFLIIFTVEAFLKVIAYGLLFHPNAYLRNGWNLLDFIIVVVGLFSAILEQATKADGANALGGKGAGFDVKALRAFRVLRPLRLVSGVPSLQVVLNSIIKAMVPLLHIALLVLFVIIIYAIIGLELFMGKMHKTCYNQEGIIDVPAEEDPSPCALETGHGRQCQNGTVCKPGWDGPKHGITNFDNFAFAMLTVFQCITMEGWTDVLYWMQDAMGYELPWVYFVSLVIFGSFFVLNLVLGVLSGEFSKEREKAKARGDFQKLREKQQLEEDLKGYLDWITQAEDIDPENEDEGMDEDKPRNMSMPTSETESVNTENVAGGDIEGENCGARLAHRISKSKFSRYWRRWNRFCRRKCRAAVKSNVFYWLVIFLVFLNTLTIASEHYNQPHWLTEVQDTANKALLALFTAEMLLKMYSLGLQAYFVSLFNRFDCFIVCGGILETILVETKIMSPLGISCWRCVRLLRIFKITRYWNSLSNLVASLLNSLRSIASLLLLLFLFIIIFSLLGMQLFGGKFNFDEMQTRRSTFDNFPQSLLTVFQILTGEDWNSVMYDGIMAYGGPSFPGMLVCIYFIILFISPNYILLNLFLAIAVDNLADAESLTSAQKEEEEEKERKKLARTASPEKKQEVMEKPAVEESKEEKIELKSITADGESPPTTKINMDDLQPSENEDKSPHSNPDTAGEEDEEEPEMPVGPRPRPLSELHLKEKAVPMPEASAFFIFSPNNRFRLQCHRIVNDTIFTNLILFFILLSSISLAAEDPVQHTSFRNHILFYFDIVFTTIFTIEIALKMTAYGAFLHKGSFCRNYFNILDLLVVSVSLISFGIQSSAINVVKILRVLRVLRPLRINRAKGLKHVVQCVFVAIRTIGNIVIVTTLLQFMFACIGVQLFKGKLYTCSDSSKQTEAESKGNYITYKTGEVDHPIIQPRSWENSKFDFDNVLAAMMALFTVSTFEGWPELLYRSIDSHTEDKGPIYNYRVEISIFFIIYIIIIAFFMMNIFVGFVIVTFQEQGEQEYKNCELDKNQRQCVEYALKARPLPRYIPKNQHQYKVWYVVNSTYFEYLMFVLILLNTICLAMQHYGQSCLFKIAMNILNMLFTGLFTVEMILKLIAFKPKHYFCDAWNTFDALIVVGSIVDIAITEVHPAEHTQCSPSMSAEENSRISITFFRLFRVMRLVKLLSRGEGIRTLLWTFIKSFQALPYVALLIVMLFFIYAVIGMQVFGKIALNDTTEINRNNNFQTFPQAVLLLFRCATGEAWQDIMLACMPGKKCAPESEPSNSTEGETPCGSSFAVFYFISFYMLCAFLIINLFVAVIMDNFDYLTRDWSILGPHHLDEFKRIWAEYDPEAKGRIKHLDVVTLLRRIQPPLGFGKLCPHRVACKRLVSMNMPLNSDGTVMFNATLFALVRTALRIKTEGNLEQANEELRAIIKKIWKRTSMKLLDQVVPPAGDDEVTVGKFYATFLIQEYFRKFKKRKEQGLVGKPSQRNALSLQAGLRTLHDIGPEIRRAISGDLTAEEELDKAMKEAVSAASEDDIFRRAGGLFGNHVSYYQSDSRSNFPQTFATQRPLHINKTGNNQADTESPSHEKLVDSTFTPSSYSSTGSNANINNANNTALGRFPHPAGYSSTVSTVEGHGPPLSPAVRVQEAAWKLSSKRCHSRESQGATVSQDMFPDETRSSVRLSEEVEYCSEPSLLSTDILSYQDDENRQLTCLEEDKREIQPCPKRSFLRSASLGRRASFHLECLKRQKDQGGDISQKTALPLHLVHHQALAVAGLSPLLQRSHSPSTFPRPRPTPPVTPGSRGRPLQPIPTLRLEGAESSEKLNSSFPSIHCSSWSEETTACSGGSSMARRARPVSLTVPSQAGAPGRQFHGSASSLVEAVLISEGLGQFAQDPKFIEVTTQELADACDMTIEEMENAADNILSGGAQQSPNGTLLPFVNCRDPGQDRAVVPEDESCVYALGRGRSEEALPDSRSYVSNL
T3 sequence (P54290 25-944 partner limits assumed, other chains not shown): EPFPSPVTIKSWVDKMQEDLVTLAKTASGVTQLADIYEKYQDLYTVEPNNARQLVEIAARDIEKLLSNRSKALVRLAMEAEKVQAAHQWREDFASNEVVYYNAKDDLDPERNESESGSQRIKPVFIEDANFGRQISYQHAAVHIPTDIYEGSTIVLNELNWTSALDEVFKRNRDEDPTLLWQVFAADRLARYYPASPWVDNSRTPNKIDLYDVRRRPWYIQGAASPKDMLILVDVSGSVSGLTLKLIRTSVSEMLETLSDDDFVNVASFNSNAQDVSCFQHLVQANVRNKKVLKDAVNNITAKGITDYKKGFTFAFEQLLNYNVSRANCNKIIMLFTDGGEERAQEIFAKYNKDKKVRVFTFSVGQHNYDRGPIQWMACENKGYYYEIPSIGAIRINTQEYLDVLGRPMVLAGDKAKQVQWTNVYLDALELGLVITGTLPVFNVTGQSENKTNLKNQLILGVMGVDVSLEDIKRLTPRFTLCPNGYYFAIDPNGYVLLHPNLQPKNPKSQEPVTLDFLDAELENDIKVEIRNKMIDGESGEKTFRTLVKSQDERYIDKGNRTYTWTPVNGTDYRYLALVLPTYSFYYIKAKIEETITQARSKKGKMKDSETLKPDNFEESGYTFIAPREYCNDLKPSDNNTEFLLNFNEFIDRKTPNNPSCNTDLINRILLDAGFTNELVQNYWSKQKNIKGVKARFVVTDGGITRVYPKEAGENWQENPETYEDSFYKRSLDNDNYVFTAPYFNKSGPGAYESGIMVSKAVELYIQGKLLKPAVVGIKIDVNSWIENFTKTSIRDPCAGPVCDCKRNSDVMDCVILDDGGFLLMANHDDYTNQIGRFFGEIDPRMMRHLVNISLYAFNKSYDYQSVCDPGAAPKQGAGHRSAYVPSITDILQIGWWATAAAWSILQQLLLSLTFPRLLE
T3 sequence (P54290 945-1091 partner limits assumed, other chains not shown): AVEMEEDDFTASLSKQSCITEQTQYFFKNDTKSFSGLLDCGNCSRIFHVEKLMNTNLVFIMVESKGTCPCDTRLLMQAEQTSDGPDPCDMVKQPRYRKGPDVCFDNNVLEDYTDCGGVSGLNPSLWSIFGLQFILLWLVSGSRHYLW
Method: The protocols for these experiments are given below.
Determination of the Activity of al Antagonists at Calcium Channels
Briefly, the tissue was minced and homogenized in 50 mM Tris-HCl (pH 7.4) containing 0.1 mM phenylmethylsulfonyl fluoride. The homogenates were centrifuged at 1000 g for 15 minutes, the resulting supernatant was centrifuged at 45,000 g for 15 minutes. The 45,000 g pellet was suspended in buffer and centrifuged a second time. Aliquots of membrane protein were incubated for 30 minutes at 37° C. in the presence of [3H]nitrendipine (1 nM), and nonspecific binding was determined in the presence of 10 μM nifedipine. The bound radioligand was separated by filtration through GF/B filters using a cell harvester.

[3] = molecular target: T4, α1B Human Adrenergic Receptor (Homo sapiens, UniProt P35368); assay: Radioligand binding, [3H]prazosin, cloned human α1B adrenergic receptor; settings: cloned human receptor, LM(tk-) cell membranes, mean
T4 construct: The entire coding region of α1B (1563 bp); expressed in transfected cells
T4 sequence (P35368 1-520): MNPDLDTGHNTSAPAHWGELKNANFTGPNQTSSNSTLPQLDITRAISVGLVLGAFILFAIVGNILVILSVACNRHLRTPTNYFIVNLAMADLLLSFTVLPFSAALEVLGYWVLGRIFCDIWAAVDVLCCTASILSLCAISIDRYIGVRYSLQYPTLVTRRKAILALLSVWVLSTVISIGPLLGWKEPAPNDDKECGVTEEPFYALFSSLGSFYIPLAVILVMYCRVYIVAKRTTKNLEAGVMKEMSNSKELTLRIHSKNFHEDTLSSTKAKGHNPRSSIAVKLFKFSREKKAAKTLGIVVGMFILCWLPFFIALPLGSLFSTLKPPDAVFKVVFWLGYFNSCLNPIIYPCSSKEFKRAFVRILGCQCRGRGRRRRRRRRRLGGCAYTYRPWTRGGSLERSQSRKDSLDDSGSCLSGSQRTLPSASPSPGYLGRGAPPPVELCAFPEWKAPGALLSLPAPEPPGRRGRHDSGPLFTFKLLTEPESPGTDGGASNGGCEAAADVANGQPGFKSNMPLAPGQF
Procedure, shortened: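 [3H]prazosin (0.5 nM) binding was run for 20 min at 37° C in pH 7.5 Tris/MgCl2/ascorbate buffer on membranes of LM(tk−) cells stably expressing the cloned receptor. Filtration through GF/B ended the reaction; 10 μM phentolamine gave nonspecific binding.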

[4] = PKi alpha-1 1a, [3H]prazosin, cloned human receptor, LM(tk-) cell membranes, mean
[5] = [3H]nitrendipine, rat cardiac muscle membranes, mean, read-out: PKi Ca (converted)
[6] = [3H]prazosin, cloned human receptor, LM(tk-) cell membranes, mean, read-out: PKi alpha-1 1a (converted)
[7] = read-out: PKi alpha-1 1c (converted)
[8] = read-out: PKi alpha-1 1b (converted)

SMILES	Ki [1, 4]	melting point	Ki ([2]; PKi alpha-1 1c)	Ki (L-type calcium channel; [5])	Ki ([3]; PKi alpha-1 1b)	Ki [1, 6]	Ki [2, 7]	Ki [3, 8]	Ki ([1]; PKi alpha-1 1a)	Ki (L-type calcium channel; PKi Ca)
CCC1=C(C(=O)O)C(c2ccc([N+](=O)[O-])cc2)C(C(=O)NCCCN2CCC(c3ccccc3)(c3ccccc3)CC2)=C(COCCN)N1 (centres unmarked) [Example 219, 2-((2-Aminoethyl)oxy)methyl-6-ethyl-1,4-dihydro-4-(4-nitro)phenyl-3-(N-(3-(4,4-diphenylpiperidin-1-yl)propyl))carboxamidopyridine-5-carboxylic Acid]	2690 nM	180 °C (dec.)	30.2 nM	575000 nM	1230 nM	–	–	–	–	–
CCC1=C(C(=O)OCCC#N)C(c2ccc([N+](=O)[O-])cc2)C(C(=O)NCCCN2CCC(C#N)(c3ccccc3)CC2)=C(COC)N1 (centres unmarked) [Example 220, 5-(2-Cyanoethoxy)carbonyl-3-(N-(3-(4-cyano-4-phenylpiperidin-1-yl)propyl))carboxamido-6-ethyl-1,4-dihydro-2-methyloxymethyl-4-(4-nitro)phenylpyridine]	2140 nM	58 to 68 °C	9.77 nM	437000 nM	525 nM	–	–	–	–	–
CCC1=C(C(=O)OCCC#N)C(c2ccc([N+](=O)[O-])cc2)C(C(=O)NCCCN2CCC(c3ccccc3)CC2)=C(COC)N1 (centres unmarked) [Example 221, 5-(2-Cyanoethoxy) carbonyl-6-ethyl-1,4-dihydro-2-methyloxymethyl-4-(4-nitro)phenyl-3-(N-(3-(4-phenylpiperidin-1-yl)propyl))carboxamidopyridine]	–	55 to 63 °C	–	14100 nM	–	186 nM	6.17 nM	52.5 nM	–	–
CCC1=C(C(=O)O)C(c2ccc([N+](=O)[O-])cc2)C(C(=O)NCCCN2CCC(C#N)(c3ccccc3)CC2)=C(COC)N1 (centres unmarked) [Example 222, 3-(N-(3-(4-Cyano-4-phenylpiperidin-1-yl)propyl))carboxamido-6-ethyl-1,4-dihydro-2-methyloxymethyl-4-(4-nitro) phenylpyridine-5-carboxylic Acid]	14100 nM	115 °C (dec.)	41.7 nM	282000 nM	6760 nM	–	–	–	–	–
CCC1=C(C(=O)OCCC#N)C(c2ccc([N+](=O)[O-])cc2)C(C(=O)NCCCN2CCC(C(=O)OC)(c3ccccc3)CC2)=C(COCCN=[N+]=[N-])N1 (centres unmarked) [Example 226, 2-((2-Azidoethyl)oxy) methyl-5-(2-cyanoethoxy) carbonyl-6-ethyl-1,4-dihydro-3-(N-(3-(4-methoxycarbonyl-4-phenylpiperidin-1-yl)propyl))carboxamido-4-(4-nitro)phenylpyridine]	–	54 to 60 °C	–	8710 nM	–	224 nM	11 nM	97.7 nM	–	–
CCC1=C(C(=O)O)C(c2ccc([N+](=O)[O-])cc2)C(C(=O)NCCCN2CCC(C(=O)OC)(c3ccccc3)CC2)=C(COCCN=[N+]=[N-])N1 (centres unmarked) [Example 227, 2-((2-Azidoethyl)oxy)methyl-6-ethyl-1,4-dihydro-3-(N-(3-(4-methoxycarbonyl-4-phenylpiperidin-1-yl)propyl))carbo xamido-4-(4-nitro)phenylpyridine-5-carboxylic Acid]	–	110 to 120 °C	–	70800 nM	–	5130 nM	23.4 nM	2630 nM	–	–
CCC1=C(C(=O)NC)C(c2ccc([N+](=O)[O-])cc2)C(C(=O)NCCCN2CCC(C(=O)OC)(c3ccccc3)CC2)=C(COCCN=[N+]=[N-])N1 (centres unmarked) [Example 228, 2-((2-Azidoethyl)oxy)methyl-6-ethyl-1,4-dihydro-3-(N-(3-(4-methoxycarbonyl-4-phenylpiperidin-1-yl)propyl))carbo xamido-5-N-methylcarboxamido-4-(4-nitro)phenylpyridine]	–	73 to 83 °C	–	33900 nM	–	3470 nM	16.6 nM	1480 nM	–	–
CCNC(=O)C1=C(CC)NC(COCCN=[N+]=[N-])=C(C(=O)NCCCN2CCC(C(=O)OC)(c3ccccc3)CC2)C1c1ccc([N+](=O)[O-])cc1 (centres unmarked) [Example 230, 2-((2-Azidoethyl)oxy)methyl-6-ethyl-5-N-ethylcarboxamido-1,4-dihydro-3-(N-(3-(4-methoxycarbonyl-4-phenylpiperidin-1-yl)propyl))carboxamido-4-(4-nitro)phenylpyridine]	–	70 °C (dec.)	–	9120 nM	–	1780 nM	8.71 nM	692 nM	–	–
CCC1=C(C(N)=O)C(c2ccc([N+](=O)[O-])cc2)C(C(=O)NCCCN2CCC(C(=O)OC)(c3ccccc3)CC2)=C(COCCN=[N+]=[N-])N1 (centres unmarked) [Example 231, 2-((2-Azidoethyl)oxy)methyl-5-carboxamido-6-ethyl-1,4-dihydro-3-(N-(3-(4-methoxycarbonyl-4-phenylpiperidin-1-yl)propyl))carboxamido-4-(4-nitro)phenylpyridine]	–	70 to 75 °C	–	389000 nM	–	1230 nM	4.37 nM	501 nM	–	–
CCC1=C(C(=O)OC)C(c2ccc([N+](=O)[O-])cc2)C(C(=O)NCCCN2CCC(C(=O)OC)(c3ccccc3)CC2)=C(COCCN=[N+]=[N-])N1 (centres unmarked) [Example 232, 2-((2-Azidoethyl)oxy)methyl-6-ethyl-5-methoxycarbonyl-3-(N-(3 (4-methoxycarbonyl-4-phenylpiperidin-1-yl)propyl))carbo xamido-1,4-dihydro-4-(4-nitro)phenylpyridine]	–	50 to 60 °C	–	–	–	–	7.59 nM	219 nM	417 nM	692 nM
